Tests used:
[1] = biological target: T1, KAT8 (lysine acetyltransferase 8) (Homo sapiens, UniProt Q9H7Z6); experiment: enzyme kinetics, Km app. for Ac-CoA without inhibitor; assay type: biochemical; conditions: read-out: Ac-CoA / Km app.
T1 sequence (Q9H7Z6 2-458): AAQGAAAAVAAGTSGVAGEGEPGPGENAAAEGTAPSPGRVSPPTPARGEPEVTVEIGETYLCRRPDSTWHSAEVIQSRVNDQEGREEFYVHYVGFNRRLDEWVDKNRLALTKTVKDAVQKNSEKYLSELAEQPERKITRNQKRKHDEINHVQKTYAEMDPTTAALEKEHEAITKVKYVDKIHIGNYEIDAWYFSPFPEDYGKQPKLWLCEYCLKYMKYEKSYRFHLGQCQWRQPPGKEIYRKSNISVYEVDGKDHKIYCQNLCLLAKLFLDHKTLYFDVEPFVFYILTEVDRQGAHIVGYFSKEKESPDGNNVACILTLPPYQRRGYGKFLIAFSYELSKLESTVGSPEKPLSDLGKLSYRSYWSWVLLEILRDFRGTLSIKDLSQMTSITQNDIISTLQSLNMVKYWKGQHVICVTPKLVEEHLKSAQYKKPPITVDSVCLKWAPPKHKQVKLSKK

[2] = biological target: T1, KAT8 (lysine acetyltransferase 8); experiment: enzyme kinetics of KAT8 HAT activity, fluorescent detection of CoASH; assay type: biochemical

CC(=O)SCCNC(=O)CCNC(=O)[C@H](O)C(C)(C)COP(=O)(O)OP(=O)(O)OC[C@H]1O[C@@H](n2cnc3c(N)ncnc32)[C@H](O)[C@@H]1OP(=O)(O)O [Ac-CoA]
Km [1]: 4.1 ± 1.1 µM

CCCCCCCc1ccc(CCc2cccc(O)c2C(=O)O)cc1 [MG149]
Ki [2]: 39 ± 7.7 µM

— publication PMC5447808 (Pulmonary pharmacology & therapeutics, 2017)
